Read-outs that look alike come from different tables or passages of the source.
Assay: Plasma PK of H3B-6545 capsules in fasted patients, phase 1 dose escalation
Format: in vivo, human
Conditions: for Tlag: Median (Min, Max)
Protocol: Blood samples were collected at the planned time points from each patient and centrifuged. The plasma portion of each sample was then transferred to a K2EDTA tube, which was then shipped to a bioanalytical lab for concentration measurement using LC-MS/MS. The concentration data were then analyzed using Phoenix® WinNonlin software to obtain PK parameters. The obtained PK parameters were further summarized using analytical software.
Blood samples (approximately 5 mL each) were collected from human patients pre-dose and at various hourly time points post-dose. Plasma concentrations of H3B-6545 were determined using a validated high-performance liquid chromatography/tandem mass spectrometry (LC-MS/MS) method. The lower limit of quantification was 0.100 ng/mL.
The PK Analysis Set included subjects who received H3B-6545 drug product in capsules or tablets and had sufficient evaluable plasma concentration data to derive at least 1 primary PK parameter in each treatment. Plasma concentrations of H3B-6545 (as free base) were tabulated and summarized at each nominal time using descriptive statistics (number of subjects, arithmetic mean with standard deviation [SD], coefficient of variation [CV %], geometric mean, median, minimum, and maximum) as appropriate. Individual and mean (±SD) plasma concentration-time profiles were provided for each treatment.
Pharmacokinetic parameters of H3B-6545 were calculated using noncompartmental methods, using an appropriate model for plasma data and extravascular administration. The PK parameters included, but were not limited to, area under the curve to the time of the last quantifiable concentration (AUC0-t), maximum concentration (Cmax), and time at which the maximum concentration occurred (tmax). If data permitted, the area under the plasma concentration-time curve extrapolated to infinity (AUC0-inf), terminal elimination half-life (t1/2), apparent total body clearance (CL/F), total systemic clearance after oral administration at steady state (CLss/F), apparent volume of distribution during the terminal phase (Vz/F), apparent steady-state volume of distribution (Vss), accumulation ratio for Cmax (RCmax) and accumulation ratio of AUC0-24 (RAUC) were also derived.
Methods were used to analyze whether H3B-6545 inactivates both wild-type and mutant ERα by targeting cysteine 530 and enforcing a unique antagonist conformation. Methods: Women with locally advanced or metastatic HR+BC are treated (tx) with H3B-6545 drug product administered once daily orally by capsule over a 28 day cycle after progression on at least one hormonal therapy and at least one additional therapy/regimen. Dose escalation uses a 3+3 design with the option to backfill previously cleared doses and allows for intrapatient dose escalation. This example explored the safety, pharmacokinetics and pharmacodynamics of H3B-6545 in women with HR+BC to identify a recommended subsequent dose for testing.
• H3B-6545 administered once daily orally over a 28 day cycle. • Dose escalation using a standard 3+3 study design using dose cohorts of 100, 200, 300, 450, and 600 mg QD. • Patients allowed to backfill previously cleared doses. • Intra-patient dose escalation allowed after completion of Cycle 3. Results (as of Apr. 20, 2019) Patient Population: • 46 patients were treated with H3B-6545 at doses of 100 to 600 mg QD. • 42 (91.3%) patients received a prior CDK4/6 inhibitor and 32 (69.6%) prior fulvestrant. • 30 (65.2%) patients received ≥3 prior anti-cancer therapy lines in the advanced/metastatic setting.
The clinical trial of Example 3 was continued and PK evaluations (of this Example 4) were made at a later date on the basis of a larger patient population. The summary of Tables 1 in Analysis of Pharmacokinetic (PK) of Capsules in Fasted Patients and 2 show PK parameters and profiles of human patients receiving capsules of H3B-6545 drug product prepared as in Example 1. […]

[1] = Cycle 1 Day 15, 100 mg QD capsules, fasted patients, Geometric Mean (GeoCV %)
[2] = Cycle 1 Day 15, 100 mg QD capsules, fasted patients, normalized from Table 11
[3] = Cycle 1 Day 15, 200 mg QD capsules, fasted patients, Geometric Mean (GeoCV %)
[4] = Cycle 1 Day 15, 200 mg QD capsules, fasted patients, normalized from Table 11
[5] = Cycle 1 Day 15, 300 mg QD capsules, fasted patients, Geometric Mean (GeoCV %)
[6] = Cycle 1 Day 15, 300 mg QD capsules, fasted patients, normalized from Table 11
[7] = Cycle 1 Day 15, 450 mg QD capsules, fasted patients, Geometric Mean (GeoCV %)
[8] = Cycle 1 Day 15, 450 mg QD capsules, fasted patients, normalized from Table 11
[9] = Cycle 1 Day 15, 600 mg QD capsules, fasted patients, Geometric Mean (GeoCV %)
[10] = Cycle 1 Day 15, 600 mg QD capsules, fasted patients, normalized from Table 11
[11] = Cycle 1 Day-Dose Escalation, 100 mg QD capsules, fasted patients, normalized from Table 9
[12] = Cycle 1 Day-Dose Escalation, 200 mg QD capsules, fasted patients, normalized from Table 9
[13] = Cycle 1 Day-Dose Escalation, 300 mg QD capsules, fasted patients, normalized from Table 9
[14] = Cycle 1 Day-Dose Escalation, 450 mg QD capsules, fasted patients, normalized from Table 9
[15] = Cycle 1 Day-Dose Escalation, 600 mg QD capsules, fasted patients, normalized from Table 9
[16] = female, human, plasma, oral, 100 mg, Cycle 1 Day 1, 100 mg QD capsules, fasted patients, Geometric Mean (GeoCV %)

## CN(C)C(=O)/C=C/CNCCOc1ccc(/C(=C(/CC(F)(F)F)c2ccccc2)c2ccc3[nH]nc(F)c3c2)cn1 [H3B-6545, (E)-N,N-dimethyl-4-[2-[5-[(Z)-4,4,4-trifluoro-1-(3-fluoro-1H-indazol-5-yl)-2-phenylbut-1-enyl]pyridin-2-yl]oxyethylamino]but-2-enamide]
100 mg to 600 mg, Cycle 1, Day 1, preliminary PK analyses (FIG. 1)
  plasma exposure versus dose: roughly dose-proportional increase
100 mg to 600 mg, preliminary PK analyses (FIG. 1)
  tmax and half-life, dependence on dose and time: independent of dose and time
100 to 600 mg, as of Apr. 20, 2019 (FIG. 1)
  plasma concentration versus dose: increased with dose
Cycle 1 Day 1, 100 mg QD capsules, fasted patients, Geometric Mean (GeoCV %)
  CL/F: 46.9 (92.2); 6 L/h
Cycle 1 Day 1, 100 mg QD capsules, fasted patients
  Tlag: 0 (0-1); 6 h
Cycle 1 Day 1, 200 mg QD capsules, fasted patients, Geometric Mean (GeoCV %)
  CL/F: 37.9 (68.3); 8 L/h
Cycle 1 Day 1, 200 mg QD capsules, fasted patients
  Tlag: 0 (0-0.6); 12 h
Cycle 1 Day 1, 300 mg QD capsules, fasted patients, Geometric Mean (GeoCV %)
  CL/F: 27.1 (49.1); 10 L/h
Cycle 1 Day 1, 300 mg QD capsules, fasted patients
  Tlag: 0 (0-0.58); 11 h
Cycle 1 Day 1, 450 mg QD capsules, fasted patients, Geometric Mean (GeoCV %)
  CL/F: 19.6 (42.4); 8 L/h
Cycle 1 Day 1, 450 mg QD capsules, fasted patients
  Tlag: 0 (0-0.5); 11 h
Cycle 1 Day 1, 600 mg QD capsules, fasted patients, Geometric Mean (GeoCV %)
  CL/F: 18.3 (68.6); 5 L/h
Cycle 1 Day 1, 600 mg QD capsules, fasted patients
  Tlag: 0 (0-0.5); 7 h
[1]
  CLss/F: 39.1 (56.2); 6 L/h
  RAUC (accumulation ratio of AUC0-24): 1.52 (58.3); 6
  RCmax (accumulation ratio for Cmax): 1.61 (69.3); 6
Cycle 1 Day 15, 100 mg QD capsules, fasted patients
  Tlag: 0 (0-0); 6 h
[2]
  AUC0-24 (per 1 mg of API): 25.6 ng·h/mL/mg
  AUC0-inf (per 1 mg of API): 29.5 ng·h/mL/mg
  AUC0-t (per 1 mg of API): 25.9 ng·h/mL/mg
  Cmax (per 1 mg of API): 2.9 ng/mL/mg
[3]
  CLss/F: 29.1 (52.8); 10 L/h
  RAUC (accumulation ratio of AUC0-24): 1.43 (72.9); 10
  RCmax (accumulation ratio for Cmax): 1.28 (118.2); 10
Cycle 1 Day 15, 200 mg QD capsules, fasted patients
  Tlag: 0 (0-0); 10 h
[4]
  AUC0-24 (per 1 mg of API): 34.4 ng·h/mL/mg
  AUC0-inf (per 1 mg of API): 39.8 ng·h/mL/mg
  AUC0-t (per 1 mg of API): 34.6 ng·h/mL/mg
  Cmax (per 1 mg of API): 3.0 ng/mL/mg
[5]
  CLss/F: 26.2 (50.5); 10 L/h
  RAUC (accumulation ratio of AUC0-24): 1.27 (38.3); 11
  RCmax (accumulation ratio for Cmax): 1.34 (38.3); 11
Cycle 1 Day 15, 300 mg QD capsules, fasted patients
  Tlag: 0 (0-0); 11 h
[6]
  AUC0-24 (per 1 mg of API): 40.0 ng·h/mL/mg
  AUC0-inf (per 1 mg of API): 42.5 ng·h/mL/mg
  AUC0-t (per 1 mg of API): 40.3 ng·h/mL/mg
  Cmax (per 1 mg of API): 4.0 ng/mL/mg
[7]
  CLss/F: 32.1 (52.6); 10 L/h
  RAUC (accumulation ratio of AUC0-24): 0.920 (49); 10
  RCmax (accumulation ratio for Cmax): 1.05 (42.1); 10
Cycle 1 Day 15, 450 mg QD capsules, fasted patients
  Tlag: 0 (0-0); 10 h
[8]
  AUC0-24 (per 1 mg of API): 31.2 ng·h/mL/mg
  AUC0-inf (per 1 mg of API): 38.6 ng·h/mL/mg
  AUC0-t (per 1 mg of API): 31.2 ng·h/mL/mg
  Cmax (per 1 mg of API): 3.1 ng/mL/mg
[9]
  CLss/F: 32.7 (78.1); 3 L/h
  RAUC (accumulation ratio of AUC0-24): 0.712 (31.4); 3
  RCmax (accumulation ratio for Cmax): 0.685 (69.2); 3
Cycle 1 Day 15, 600 mg QD capsules, fasted patients
  Tlag: 0 (0-0); 3 h
[10]
  AUC0-24 (per 1 mg of API): 30.6 ng·h/mL/mg
  AUC0-inf (per 1 mg of API): 66.2 ng·h/mL/mg
  AUC0-t (per 1 mg of API): 31.2 ng·h/mL/mg
  Cmax (per 1 mg of API): 2.8 ng/mL/mg
[11]
  AUC0-24 (per 1 mg of API): 16.8 ng·h/mL/mg
  AUC0-inf (per 1 mg of API): 21.3 ng·h/mL/mg
  AUC0-t (per 1 mg of API): 16.8 ng·h/mL/mg
  Cmax (per 1 mg of API): 1.78 ng/mL/mg
[12]
  AUC0-24 (per 1 mg of API): 23.8 ng·h/mL/mg
  AUC0-inf (per 1 mg of API): 26.37 ng·h/mL/mg
  AUC0-t (per 1 mg of API): 24.1 ng·h/mL/mg
  Cmax (per 1 mg of API): 2.4 ng/mL/mg
[13]
  AUC0-24 (per 1 mg of API): 31.6 ng·h/mL/mg
  AUC0-inf (per 1 mg of API): 36.9 ng·h/mL/mg
  AUC0-t (per 1 mg of API): 31.8 ng·h/mL/mg
  Cmax (per 1 mg of API): 3.0 ng/mL/mg
[14]
  AUC0-24 (per 1 mg of API): 35.9 ng·h/mL/mg
  AUC0-inf (per 1 mg of API): 51.1 ng·h/mL/mg
  AUC0-t (per 1 mg of API): 35.9 ng·h/mL/mg
  Cmax (per 1 mg of API): 3.3 ng/mL/mg
[15]
  AUC0-24 (per 1 mg of API): 37.3 ng·h/mL/mg
  AUC0-inf (per 1 mg of API): 54.8 ng·h/mL/mg
  AUC0-t (per 1 mg of API): 37.2 ng·h/mL/mg
  Cmax (per 1 mg of API): 3.4 ng/mL/mg
[16]
  AUC(0-inf): 2130 ng·h/mL
  Cmax: 178 ng/mL
  half-life: 10.2 h
female, human, plasma, oral, 100 mg, Cycle 1 Day 1, 100 mg QD capsules, fasted patients, Geometric Mean (GeoCV %), read-out: AUC0-24
  AUC(0-t): 1680 ng·h/mL
female, human, plasma, oral, 100 mg, Cycle 1 Day 1, 100 mg QD capsules, fasted patients, Geometric Mean (GeoCV %), read-out: AUC0-t
  AUC(0-t): 1680 ng·h/mL
